Test results from paper PMC8800111 (The Journal of Biological Chemistry, 2021).

Key:
Type in all cases: cell-based
[1] = molecular target: proteins of U3A human fibrosarcoma cells (4462 proteins detected) (Homo sapiens, UniProt Q92797); conditions: protein SYMPK; soluble abundance after heat, U3A cells
[2] = molecular target: proteins of U3A human fibrosarcoma cells (4462 proteins detected) (Homo sapiens, UniProt Q14669); conditions: protein TRIP12, U3A cells
[3] = molecular target: proteins of U3A human fibrosarcoma cells (4462 proteins detected) (Homo sapiens, UniProt Q5T4S7); conditions: protein UBR4; soluble abundance after heat, U3A cells
[4] = molecular target: proteins of U3A human fibrosarcoma cells (4462 proteins detected) (Homo sapiens, UniProt Q8IVD9); conditions: protein NUDCD3; soluble abundance after heat, U3A cells
[5] = molecular target: proteins of U3A human fibrosarcoma cells (4462 proteins detected) (Homo sapiens, UniProt Q92973); conditions: protein TNPO1; U3A cells
[6] = molecular target: proteins of U3A human fibrosarcoma cells (4462 proteins detected) (Homo sapiens, UniProt Q15149); conditions: protein PLEC; soluble abundance after heat, U3A cells
[7] = molecular target: proteins of U3A human fibrosarcoma cells (4462 proteins detected) (Homo sapiens, UniProt Q9NQT5); conditions: protein EXOSC3; U3A cells
[8] = molecular target: proteins of U3A human fibrosarcoma cells (4462 proteins detected) (Homo sapiens, UniProt Q53FT3); conditions: protein C11orf73; U3A, 10 μM, 2 h
[9] = molecular target: proteins of U3A human fibrosarcoma cells (4462 proteins detected) (Homo sapiens, UniProt P51946); conditions: protein CCNH; U3A cells
Sequence of proteins of U3A human fibrosarcoma cells (4462 proteins detected) (Homo sapiens, UniProt P51946) (P51946 whole entry): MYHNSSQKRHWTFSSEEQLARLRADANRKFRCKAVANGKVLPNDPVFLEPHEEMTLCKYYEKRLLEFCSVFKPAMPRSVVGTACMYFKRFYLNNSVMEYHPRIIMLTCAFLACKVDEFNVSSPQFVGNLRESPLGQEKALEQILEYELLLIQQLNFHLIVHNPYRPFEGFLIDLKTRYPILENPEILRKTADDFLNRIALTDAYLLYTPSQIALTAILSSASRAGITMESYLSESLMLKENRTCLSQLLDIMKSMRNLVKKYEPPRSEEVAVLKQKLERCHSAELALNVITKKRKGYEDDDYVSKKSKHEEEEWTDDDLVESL

[10] = molecular target: proteins of U3A human fibrosarcoma cells (4462 proteins detected) (Homo sapiens, UniProt Q96QG7); conditions: protein MTMR9; soluble abundance after heat, U3A cells
[11] = molecular target: proteins of U3A human fibrosarcoma cells (4462 proteins detected) (Homo sapiens, UniProt Q9Y4X5); conditions: protein ARIH1; U3A cells
Sequence of proteins of U3A human fibrosarcoma cells (4462 proteins detected) (Homo sapiens, UniProt Q9Y4X5) (Q9Y4X5 whole entry): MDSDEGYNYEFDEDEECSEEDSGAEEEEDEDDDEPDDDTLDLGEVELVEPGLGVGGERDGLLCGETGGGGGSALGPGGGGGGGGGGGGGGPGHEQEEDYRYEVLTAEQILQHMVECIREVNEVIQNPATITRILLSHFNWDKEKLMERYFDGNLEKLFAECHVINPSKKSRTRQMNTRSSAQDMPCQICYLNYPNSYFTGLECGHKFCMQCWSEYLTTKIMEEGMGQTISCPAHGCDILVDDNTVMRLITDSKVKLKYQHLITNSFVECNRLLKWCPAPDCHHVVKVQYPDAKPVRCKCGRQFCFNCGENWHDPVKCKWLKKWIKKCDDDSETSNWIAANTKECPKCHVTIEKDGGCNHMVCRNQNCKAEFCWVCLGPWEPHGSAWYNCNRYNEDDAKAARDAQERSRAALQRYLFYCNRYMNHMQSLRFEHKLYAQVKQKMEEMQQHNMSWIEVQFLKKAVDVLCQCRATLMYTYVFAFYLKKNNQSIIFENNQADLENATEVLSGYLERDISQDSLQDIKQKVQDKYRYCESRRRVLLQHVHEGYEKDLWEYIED

[12] = molecular target: proteins of U3A human fibrosarcoma cells (4462 proteins detected) (Homo sapiens, UniProt Q9NTW7); conditions: protein ZFP64, U3A cells
[13] = molecular target: proteins of U3A human fibrosarcoma cells (4462 proteins detected) (Homo sapiens, UniProt P41229); conditions: protein KDM5C; U3A cells
[14] = molecular target: proteins of U3A human fibrosarcoma cells (4462 proteins detected) (Homo sapiens, UniProt P13796); conditions: protein LCP1; soluble abundance after heat, U3A cells
[15] = molecular target: proteins of U3A human fibrosarcoma cells (4462 proteins detected) (Homo sapiens, UniProt Q9Y2K3); conditions: protein MYH15; U3A cells
[16] = molecular target: proteins of U3A human fibrosarcoma cells (4462 proteins detected) (Homo sapiens, UniProt Q96EY8); conditions: protein MMAB; U3A cells
Sequence of proteins of U3A human fibrosarcoma cells (4462 proteins detected) (Homo sapiens, UniProt Q96EY8) (Q96EY8 33-250): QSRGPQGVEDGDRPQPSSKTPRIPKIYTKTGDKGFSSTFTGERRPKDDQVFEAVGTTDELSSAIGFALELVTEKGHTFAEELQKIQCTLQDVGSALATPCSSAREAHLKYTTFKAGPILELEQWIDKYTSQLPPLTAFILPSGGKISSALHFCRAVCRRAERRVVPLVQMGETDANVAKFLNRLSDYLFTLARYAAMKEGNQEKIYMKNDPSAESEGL

[17] = molecular target: proteins of U3A human fibrosarcoma cells (4462 proteins detected) (Homo sapiens, UniProt P14854); conditions: protein COX6B1, U3A cells
[18] = molecular target: proteins of U3A human fibrosarcoma cells (4462 proteins detected) (Homo sapiens, UniProt P31689); conditions: protein DNAJA1; U3A cells
[19] = molecular target: proteins of U3A human fibrosarcoma cells (4462 proteins detected) (Homo sapiens, UniProt Q13330); conditions: protein MTA1; U3A cells
Sequence of proteins of U3A human fibrosarcoma cells (4462 proteins detected) (Homo sapiens, UniProt Q13330) (Q13330 whole entry): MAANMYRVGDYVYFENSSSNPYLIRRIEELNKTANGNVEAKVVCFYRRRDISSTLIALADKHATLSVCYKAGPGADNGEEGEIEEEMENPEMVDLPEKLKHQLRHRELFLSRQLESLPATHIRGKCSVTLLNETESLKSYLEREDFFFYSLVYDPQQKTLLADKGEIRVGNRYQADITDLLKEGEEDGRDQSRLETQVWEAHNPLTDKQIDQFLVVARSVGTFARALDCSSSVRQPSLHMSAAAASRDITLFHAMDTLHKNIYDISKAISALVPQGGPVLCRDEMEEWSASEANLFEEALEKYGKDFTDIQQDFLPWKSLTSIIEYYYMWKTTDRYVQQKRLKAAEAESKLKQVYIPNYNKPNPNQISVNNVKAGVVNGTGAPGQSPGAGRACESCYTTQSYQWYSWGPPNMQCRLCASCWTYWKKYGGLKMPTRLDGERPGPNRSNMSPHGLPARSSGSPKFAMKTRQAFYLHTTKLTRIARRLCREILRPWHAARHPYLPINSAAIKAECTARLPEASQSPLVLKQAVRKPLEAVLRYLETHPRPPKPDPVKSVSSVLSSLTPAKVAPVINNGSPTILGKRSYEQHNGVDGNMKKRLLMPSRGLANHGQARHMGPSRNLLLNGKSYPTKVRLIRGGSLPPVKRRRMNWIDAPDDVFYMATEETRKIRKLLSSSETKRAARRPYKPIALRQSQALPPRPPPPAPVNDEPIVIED

[20] = molecular target: proteins of U3A human fibrosarcoma cells (4462 proteins detected) (Homo sapiens, UniProt P08758); conditions: protein ANXA5, U3A cells
[21] = molecular target: proteins of U3A human fibrosarcoma cells (4462 proteins detected) (Homo sapiens, UniProt Q8IW35); conditions: protein CEP97; U3A, 10 μM, 2 h
[22] = molecular target: proteins of U3A human fibrosarcoma cells (4462 proteins detected) (Homo sapiens, UniProt O14828); conditions: protein SCAMP3; soluble abundance after heat, U3A cells
Sequence of proteins of U3A human fibrosarcoma cells (4462 proteins detected) (Homo sapiens, UniProt O14828) (O14828 whole entry): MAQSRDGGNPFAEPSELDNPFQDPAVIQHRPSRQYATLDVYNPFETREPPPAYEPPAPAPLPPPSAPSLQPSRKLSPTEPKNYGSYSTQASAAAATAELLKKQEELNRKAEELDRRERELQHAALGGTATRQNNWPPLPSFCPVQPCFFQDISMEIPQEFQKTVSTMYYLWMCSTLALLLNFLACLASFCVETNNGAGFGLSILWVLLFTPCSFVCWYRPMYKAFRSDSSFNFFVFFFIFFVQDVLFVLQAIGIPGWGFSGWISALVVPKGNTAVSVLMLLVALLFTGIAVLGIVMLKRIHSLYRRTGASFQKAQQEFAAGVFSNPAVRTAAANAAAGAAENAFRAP

[23] = molecular target: proteins of U3A human fibrosarcoma cells (4462 proteins detected) (Homo sapiens, UniProt Q13162); conditions: protein PRDX4; U3A cells
[24] = molecular target: proteins of U3A human fibrosarcoma cells (4462 proteins detected) (Homo sapiens, UniProt Q9BY32); conditions: protein ITPA; soluble abundance after heat, U3A cells
[25] = molecular target: proteins of U3A human fibrosarcoma cells (4462 proteins detected) (Homo sapiens, UniProt P00374); conditions: 10 μM, 2 h
Sequence of proteins of U3A human fibrosarcoma cells (4462 proteins detected) (Homo sapiens, UniProt P00374) (P00374 whole entry): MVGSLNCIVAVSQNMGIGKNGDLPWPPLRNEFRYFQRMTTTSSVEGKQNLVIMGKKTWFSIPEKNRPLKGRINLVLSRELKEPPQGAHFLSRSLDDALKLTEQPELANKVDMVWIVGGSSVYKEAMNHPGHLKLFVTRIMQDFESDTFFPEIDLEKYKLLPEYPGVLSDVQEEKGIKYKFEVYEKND

[26] = molecular target: proteins of U3A human fibrosarcoma cells (4462 proteins detected) (Homo sapiens, UniProt P78371); conditions: protein CCT2; U3A cells
Sequence of proteins of U3A human fibrosarcoma cells (4462 proteins detected) (Homo sapiens, UniProt P78371) (P78371 whole entry): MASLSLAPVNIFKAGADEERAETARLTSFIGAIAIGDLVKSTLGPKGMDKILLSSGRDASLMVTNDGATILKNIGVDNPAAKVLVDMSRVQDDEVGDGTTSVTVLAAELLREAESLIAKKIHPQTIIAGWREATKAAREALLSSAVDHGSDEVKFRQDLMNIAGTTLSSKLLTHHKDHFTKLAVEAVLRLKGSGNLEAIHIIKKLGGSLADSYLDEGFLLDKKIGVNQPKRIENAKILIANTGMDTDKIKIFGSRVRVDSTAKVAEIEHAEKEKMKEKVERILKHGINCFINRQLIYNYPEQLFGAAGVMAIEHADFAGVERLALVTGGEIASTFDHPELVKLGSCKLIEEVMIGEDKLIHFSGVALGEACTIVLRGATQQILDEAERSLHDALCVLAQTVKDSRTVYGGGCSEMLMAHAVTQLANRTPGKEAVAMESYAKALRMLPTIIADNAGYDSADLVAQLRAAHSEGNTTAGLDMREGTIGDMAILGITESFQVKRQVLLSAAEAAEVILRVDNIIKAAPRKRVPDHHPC

[27] = molecular target: proteins of U3A human fibrosarcoma cells (4462 proteins detected) (Homo sapiens, UniProt O43427); conditions: protein FIBP; soluble abundance after heat, U3A cells
[28] = molecular target: proteins of U3A human fibrosarcoma cells (4462 proteins detected) (Homo sapiens, UniProt Q9HAN9); conditions: protein NMNAT1, U3A cells
[29] = molecular target: proteins of U3A human fibrosarcoma cells (4462 proteins detected) (Homo sapiens, UniProt Q96K76); conditions: protein USP47; U3A cells

Sequence of proteins of U3A human fibrosarcoma cells (4462 proteins detected) (Homo sapiens, UniProt Q14669) (Q14669 with tags, fused parts or gaps): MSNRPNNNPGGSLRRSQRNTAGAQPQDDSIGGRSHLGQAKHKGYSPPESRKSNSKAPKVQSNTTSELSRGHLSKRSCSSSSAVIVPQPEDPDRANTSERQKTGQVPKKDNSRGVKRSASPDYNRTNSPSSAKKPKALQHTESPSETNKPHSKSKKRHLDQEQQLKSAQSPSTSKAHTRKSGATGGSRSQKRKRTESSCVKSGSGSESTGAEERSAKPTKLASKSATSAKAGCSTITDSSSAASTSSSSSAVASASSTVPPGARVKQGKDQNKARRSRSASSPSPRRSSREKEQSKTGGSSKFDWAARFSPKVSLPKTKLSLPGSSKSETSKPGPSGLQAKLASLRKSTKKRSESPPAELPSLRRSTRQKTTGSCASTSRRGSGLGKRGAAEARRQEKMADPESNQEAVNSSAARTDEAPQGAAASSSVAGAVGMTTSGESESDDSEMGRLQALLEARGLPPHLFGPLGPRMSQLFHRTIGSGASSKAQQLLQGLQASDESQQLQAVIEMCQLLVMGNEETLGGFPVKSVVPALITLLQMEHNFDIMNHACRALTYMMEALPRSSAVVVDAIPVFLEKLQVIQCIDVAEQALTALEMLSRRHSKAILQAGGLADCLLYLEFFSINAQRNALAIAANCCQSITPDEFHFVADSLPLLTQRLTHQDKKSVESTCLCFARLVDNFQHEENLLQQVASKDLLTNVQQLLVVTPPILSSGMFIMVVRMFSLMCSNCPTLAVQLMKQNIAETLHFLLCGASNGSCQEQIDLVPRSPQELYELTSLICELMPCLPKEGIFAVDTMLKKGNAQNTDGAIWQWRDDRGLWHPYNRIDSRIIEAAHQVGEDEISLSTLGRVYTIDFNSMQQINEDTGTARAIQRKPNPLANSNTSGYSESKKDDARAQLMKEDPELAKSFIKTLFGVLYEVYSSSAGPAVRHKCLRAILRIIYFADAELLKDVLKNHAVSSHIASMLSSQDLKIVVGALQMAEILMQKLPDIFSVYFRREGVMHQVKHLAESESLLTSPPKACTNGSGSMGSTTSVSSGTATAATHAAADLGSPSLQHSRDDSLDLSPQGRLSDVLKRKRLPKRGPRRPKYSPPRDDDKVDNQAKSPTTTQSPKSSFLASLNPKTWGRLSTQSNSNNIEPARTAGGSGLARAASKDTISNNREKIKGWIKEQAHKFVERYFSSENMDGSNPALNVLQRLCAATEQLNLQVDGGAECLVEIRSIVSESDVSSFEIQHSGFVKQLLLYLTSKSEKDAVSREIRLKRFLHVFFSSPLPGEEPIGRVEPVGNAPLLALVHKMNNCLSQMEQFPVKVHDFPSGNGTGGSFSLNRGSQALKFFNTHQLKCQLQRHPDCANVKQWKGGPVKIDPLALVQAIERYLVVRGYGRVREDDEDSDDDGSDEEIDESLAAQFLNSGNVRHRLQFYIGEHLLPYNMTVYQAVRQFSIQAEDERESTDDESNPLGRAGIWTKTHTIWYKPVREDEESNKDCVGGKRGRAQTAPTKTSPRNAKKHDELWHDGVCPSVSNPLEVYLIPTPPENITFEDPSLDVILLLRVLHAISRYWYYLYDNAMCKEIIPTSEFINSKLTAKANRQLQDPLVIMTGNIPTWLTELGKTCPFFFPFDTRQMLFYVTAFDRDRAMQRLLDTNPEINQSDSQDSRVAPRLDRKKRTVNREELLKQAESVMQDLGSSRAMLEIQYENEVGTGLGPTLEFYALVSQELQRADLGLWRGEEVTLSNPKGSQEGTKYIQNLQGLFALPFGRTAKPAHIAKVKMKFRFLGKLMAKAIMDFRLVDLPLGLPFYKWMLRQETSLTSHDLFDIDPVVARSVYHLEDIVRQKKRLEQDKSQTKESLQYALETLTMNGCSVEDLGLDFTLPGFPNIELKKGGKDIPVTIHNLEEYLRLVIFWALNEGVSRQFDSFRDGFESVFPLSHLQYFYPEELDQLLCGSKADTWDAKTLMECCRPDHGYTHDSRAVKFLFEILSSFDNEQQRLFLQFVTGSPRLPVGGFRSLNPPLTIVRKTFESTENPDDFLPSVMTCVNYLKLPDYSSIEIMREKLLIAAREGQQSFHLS

SMILES: CCc1nc(N)nc(N)c1-c1ccc(Cl)cc1 [pyrimethamine]
- Log2 (PYR/DMSO) [1]: 0.15
- Log2 (PYR/DMSO) [2]: -0.04
- Log2 (PYR/DMSO) [3]: 0.14
- Log2 (PYR/DMSO) [4]: 0.15
- Log2 (PYR/DMSO) [5]: 0.22
- Log2 (PYR/DMSO) [6]: 0.14
- Log2 (PYR/DMSO) [7]: 0.18
- Log2 (PYR/DMSO), C11orf73 [8]: 0.28
- Log2 (PYR/DMSO) [9]: 0.16
- Log2 (PYR/DMSO) [10]: 0.15
- Log2 (PYR/DMSO) [11]: 0.16
- Log2 (PYR/DMSO) [12]: -0.04
- Log2 (PYR/DMSO) [13]: 0.18
- Log2 (PYR/DMSO) [14]: 0.15
- Log2 (PYR/DMSO) [15]: 0.17
- Log2 (PYR/DMSO) [16]: 0.19
- Log2 (PYR/DMSO) [17]: -0.04
- Log2 (PYR/DMSO) [18]: 0.17
- Log2 (PYR/DMSO) [19]: 0.16
- Log2 (PYR/DMSO) [20]: -0.04
- Log2 (PYR/DMSO), CEP97 [21]: -0.20
- Log2 (PYR/DMSO) [22]: 0.14
- Log2 (PYR/DMSO) [23]: 0.16
- Log2 (PYR/DMSO) [24]: 0.15
- increased abundance of DHFR in the soluble fraction ([25]; U3A cells, vs vehicle): 1.7 fold
- Log2 (PYR/DMSO), DHFR ([25]; protein DHFR, U3A): 0.80
- Log2 (PYR/DMSO) [26]: 0.17
- Log2 (PYR/DMSO) [27]: 0.14
- Log2 (PYR/DMSO) [28]: -0.04
- Log2 (PYR/DMSO) [29]: 0.19
